Our source for the IC50 values is PMC6609544 (British Journal of Pharmacology, 2019).

For assay [1], the target named is T1, Kv12.1 (Elk1) (Homo sapiens, UniProt Q96L42).
T1 sequence (Q96L42 1-1107): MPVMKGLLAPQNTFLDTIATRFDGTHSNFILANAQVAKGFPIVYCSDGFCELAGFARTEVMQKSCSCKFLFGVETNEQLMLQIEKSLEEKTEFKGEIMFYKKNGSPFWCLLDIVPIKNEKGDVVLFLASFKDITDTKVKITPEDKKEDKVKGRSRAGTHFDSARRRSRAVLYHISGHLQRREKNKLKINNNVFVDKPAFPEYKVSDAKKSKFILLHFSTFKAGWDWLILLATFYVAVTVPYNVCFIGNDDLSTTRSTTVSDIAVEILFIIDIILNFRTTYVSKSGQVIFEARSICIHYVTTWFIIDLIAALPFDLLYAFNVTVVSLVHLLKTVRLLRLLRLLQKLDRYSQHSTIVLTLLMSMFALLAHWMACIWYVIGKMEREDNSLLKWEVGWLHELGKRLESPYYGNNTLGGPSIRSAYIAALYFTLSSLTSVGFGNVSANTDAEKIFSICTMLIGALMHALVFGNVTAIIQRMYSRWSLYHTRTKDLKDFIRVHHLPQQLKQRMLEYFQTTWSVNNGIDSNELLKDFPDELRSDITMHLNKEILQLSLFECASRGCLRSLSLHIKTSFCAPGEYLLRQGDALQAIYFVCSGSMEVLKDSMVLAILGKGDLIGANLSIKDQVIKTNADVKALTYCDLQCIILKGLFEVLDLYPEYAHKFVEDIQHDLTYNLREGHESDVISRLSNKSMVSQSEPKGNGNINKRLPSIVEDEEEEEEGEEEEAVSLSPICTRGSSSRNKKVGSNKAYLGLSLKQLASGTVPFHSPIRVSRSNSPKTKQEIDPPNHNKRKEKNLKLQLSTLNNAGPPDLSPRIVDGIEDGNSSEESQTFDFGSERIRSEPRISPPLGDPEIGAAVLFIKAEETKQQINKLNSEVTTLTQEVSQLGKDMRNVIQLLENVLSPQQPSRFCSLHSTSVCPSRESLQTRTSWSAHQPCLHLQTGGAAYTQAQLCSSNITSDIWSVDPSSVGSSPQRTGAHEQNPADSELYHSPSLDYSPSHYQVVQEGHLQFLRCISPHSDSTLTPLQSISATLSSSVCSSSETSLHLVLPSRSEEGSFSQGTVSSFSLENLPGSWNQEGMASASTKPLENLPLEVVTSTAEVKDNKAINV
Kind of assay: whole-cell patch clamp in transfected CHO cells. Format: cell-based. Background: Patch clamp records ionic current or voltage across a cell membrane.

Assay [2] concerns the target T2, Kv12.1(H462Y) (Homo sapiens, UniProt Q96L42, H462Y).
T2 sequence (Q96L42 1-1107 H462Y): T1 sequence (Q96L42 1-1107) with H462Y
Kind of assay: whole-cell patch clamp in transfected CHO cells. Format: cell-based.

Changes are numbered by the printed parent chain.

For the compound `C=C[C@H]1C[N@@]2CC[C@H]1C[C@H]2[C@H](O)c1ccnc2ccc(OC)cc12` [quinine], the IC50 (in general, the concentration that gives 50% inhibition) was 970 µM in assay [1] and 56 µM in assay [2].
